pEC50: −log10 of the molar value.
Biological target: T1, Adenosine receptor A1 (Cavia porcellus, UniProt P47745)
T1 sequence (P47745 whole entry): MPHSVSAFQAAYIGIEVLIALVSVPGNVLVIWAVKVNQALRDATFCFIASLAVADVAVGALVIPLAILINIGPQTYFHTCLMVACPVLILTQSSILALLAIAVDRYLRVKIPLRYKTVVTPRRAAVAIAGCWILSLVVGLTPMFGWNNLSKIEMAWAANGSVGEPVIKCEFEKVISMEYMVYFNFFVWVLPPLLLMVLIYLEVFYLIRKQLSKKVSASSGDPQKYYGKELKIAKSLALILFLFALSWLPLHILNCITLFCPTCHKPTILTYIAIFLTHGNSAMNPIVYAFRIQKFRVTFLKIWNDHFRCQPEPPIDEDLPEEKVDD
Test: ChEBML_29278
Text: In vitro prolonging of the stimulus-QRS interval in guinea pig heart.

CCCCCN=Nc1nc(N)c2ncn(C3O[C@H](CO)[C@@H](O)[C@H]3O)c2n1 (stereo partly specified)
pEC50: 4.60

Source: BindingDB's records for doi:10.1021/jm00102a007 (University of South Florida, 1993)
